In assay [1] the test system is E. coli lacking the endogenic MetB CGS gene, transformed to express the CGS from Arabidopsis. Nature of the assay: Growth of engineered E. coli expressing Arabidopsis CGS in M9 minimal media, with and without methionine. Format: cell-based. To be noted: for E. coli Assay LE395 (0-5): score 0-5, growth of E. coli with Arabidopsis CGS gene in M9 minimal media; for E. coli specificity (MOA): score, growth with vs without external methionine (40 mg/L). The method, then:
In addition to the direct binding evaluation, specific assay to test the compounds activity and specificity were also developed. In this assay, E. coli cells, lacking the endogenic MetB CGS gene and transformed to express the CGS from Arabidopsis, were used. These cells were grown on M9 minimal media with and without external methionine supplemented to the cells, in the presence of the compounds of the embodiments. These selected compounds of the embodiments, capable of inhibiting the cell growth on M9, but incapable of affecting the cell growth when supplemented with methionine, were validated as methionine-pathway specific inhibitors.
In this assay, Methionine auxotroph E. coli mutant was transformed with PQE-30 vector containing the Arabidopsis CGS gene as previously described in Yael Hacham et al., Plant Physiol., February 2002, 128(2): 454-462. In order to test the effect of the small molecule inhibitors on the CGS and methionine pathway, growth curves of the E. coli in M9 minimal media with […] were measured with and without the addition of external methionine (40 mg/L) in the presence of variable compound concentrations. E. coli growth curves were measured by following the optical density at 600 nm of bacteria in 96 well-plate placed within Tecan M200 plate reader in orbital shaking mode at 37° C. The slope of each curve was estimated using the ‘linest’ function in Excel.

Another assay addresses T1, Tobacco CGS (Nicotiana tabacum, UniProt Q9ZPL5).
T1 sequence (Q9ZPL5 79-540): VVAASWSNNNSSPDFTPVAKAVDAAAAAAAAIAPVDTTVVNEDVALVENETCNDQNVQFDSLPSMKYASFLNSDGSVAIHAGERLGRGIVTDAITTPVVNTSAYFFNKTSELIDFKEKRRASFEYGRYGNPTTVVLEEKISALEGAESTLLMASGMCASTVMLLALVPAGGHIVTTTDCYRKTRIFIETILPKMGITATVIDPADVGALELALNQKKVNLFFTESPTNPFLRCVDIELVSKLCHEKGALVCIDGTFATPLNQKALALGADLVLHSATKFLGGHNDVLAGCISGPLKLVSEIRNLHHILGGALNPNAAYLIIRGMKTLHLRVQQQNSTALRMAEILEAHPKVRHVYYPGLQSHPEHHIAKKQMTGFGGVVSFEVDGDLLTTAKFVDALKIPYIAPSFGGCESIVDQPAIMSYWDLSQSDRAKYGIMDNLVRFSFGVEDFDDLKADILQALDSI
Briefly: Micro Scale Thermophoresis (MST) direct binding to CGS. Also noted: 6xHIS (N, cleaved yes); GB1 solubility tag (N, cleaved yes); made in house; host or cells: E. coli BL21. To be noted: score 0-5; binding to labelled Tobacco CGS. The method, then:
The direct binding of the compounds of the embodiments to the CGS was tested by Micro Scale Thermophoresis (MST). In the MST assay, the CGS protein was labelled with a fluorophore, the samples were heated, and changes in fluorescence were measured as a function of the ligand concentration. In the MST assay, similar to the expression and purification described above, the recombinant Tobacco CGS protein was expressed in E. coli BL21 cells and purified to homogeneity. For that particular purpose, the pET-11 vector containing the DNA sequence of Tobacco CGS with an N-terminus […] tag followed by a TEV-cleavable GB1 solubility tag was cloned and transformed into the bacteria cells. Cells were cultured to OD=0.8, and protein expression was induced by the addition of 1 mM IPTG. The cells were cultured for additional 16 hours temperature 25° C. Following cellular lysis, the soluble fraction was passed through the nickel column and the bound HIS-tagged protein was eluted by 300 mM imidazole. Then, the tags […] and GB1 were cleaved in dialysis o/n and the mixtures passed again through the nickel column to separate the CGS from the TEV and HIS-GB1 constructs. As a final step the CGS was run on S75 size exclusion chromatography. Thus, the MST assay was performed to measure the biding of the compounds to the CGS protein. For this purpose, the CGS was labelled with commercially available amine reactive fluorophore (Cat # MO-[…], NanoTemper) according to the manufacture instructions. The MST binding curves were then measured using the Monolith NT.115 apparatus by incubating the labelled protein with the indicated compounds in a dose-response manner.

The test system of the next assay is Arabidopsis thaliana. Nature of the assay: Arabidopsis thaliana root growth inhibition. The format is in vivo. To be noted: 168 h, root length ratio vs DMSO control, 50 μM compound, lower values indicate shorter root, larger effect, read-out: Arabidopsis (relative to DMSO). The method, then: Finally, FIGS. 7a-7o are the photos of the Arabidopsis thaliana plants and the inhibition of their roots growth by the compounds of the present invention. These experiments were conducted as follows. Seeds were washed with 70% ethanol for one minute and then with sterile water. Sterilisation was performed with 50% bleaching solution (3%) and 0.2% Triton x-100 for ten minutes followed by a five-time wash with sterile water. The seeds were placed in six well-plates with half Murashige and Skoog medium (MS; Duchefa, Haarlem, Netherlands), containing 1% sucrose (w/v), pH 5.8. The plates with Arabidopsis thaliana seeds were placed at 4° C. for two days and then transferred for seven days to growth chamber (22±2° C.) at day/light cycles of 16/8 h. The plates were placed vertically. In each plate, a control including 0.1% DMSO in the medium was added. The compounds of the present invention were tested for their herbicidal efficiency by diluting 1000 times a 50 mM stock in DMSO leading to a final concentration of 50 μM with 0.1% DMSO.
In Tables 1, 2 and 4 above, Arabidopsis root length was measured after addition of 50-μM compound compared with the negative control (DMSO) treatment. Length values indicate the ratio between non-treated plates ([…]) and the length after the addition of 50 uM of each compound. Lower values indicate shorter root length, and consequently, larger effect.

For the next assay, the system named is Roquette. Nature of the assay: Roquette assay spray. Format: in vivo.

For the compound `COc1cccc(C(=O)Nc2cccc(-c3nc(C)cc(=O)[nH]3)c2)c1` [IML-11], in assay [1], the “E. coli Assay LE395 (0-5)” value turned out to be 3 and the “E. coli specificity (MOA)” value was found to be 4. Also, the “MST Tobacco (0-5)” value at Tobacco CGS is 3.
For `Cc1cc(=O)[nH]c(-c2cccc(NC(=O)c3ccc(O)cc3F)c2)n1` [IML-14], in assay [1], the “E. coli Assay LE395 (0-5)” value worked out at 3 and the “E. coli specificity (MOA)” value came to 4. Moreover, on Tobacco CGS, the “MST Tobacco (0-5)” value was 3.
For the compound `Cc1cc(=O)[nH]c(-c2ccc(NC(=O)c3c(O)cccc3F)cc2)n1` [IML-15], in assay [1], the “E. coli Assay LE395 (0-5)” value is listed as 3 and the “E. coli specificity (MOA)” value was found to be 4. Further, at Tobacco CGS, the “MST Tobacco (0-5)” value stood at 1.
For `Cc1cc(=O)[nH]c(-c2cccc(NC(=O)c3ccccc3OC(F)F)c2)n1` [IML-22], in assay [1], the “E. coli Assay LE395 (0-5)” value came to 2 and the “E. coli specificity (MOA)” value is 4. The “MST Tobacco (0-5)” value on Tobacco CGS stood at 3.
`CCc1ccc(C(=O)Nc2cccc(-c3nc(C)cc(=O)[nH]3)c2)cc1` [IML-24]: the activity at 50 µM in the assay with Arabidopsis thaliana was 35%. In addition, in the assay with Roquette, the “Roquette assay spray (twice average)” value is reported as 2.0.
On to `COc1ccnc(C(=O)Nc2cccc(-c3nc(C)cc(=O)[nH]3)c2)c1` [IML-62], for which, in assay [1], the “E. coli Assay LE395 (0-5)” value is reported as 3 and the “E. coli specificity (MOA)” value stood at 5. Also, the “MST Tobacco (0-5)” value at Tobacco CGS is listed as 4.
Consider `Cc1ccc(C(=O)Nc2cccc(-c3nc(C)cc(O)n3)c2)nc1` [IML-66], for which, in assay [1], the “E. coli Assay LE395 (0-5)” value was determined as 3 and the “E. coli specificity (MOA)” value turned out to be 4. Also, the “MST Tobacco (0-5)” value on Tobacco CGS is 3.
As for `COc1cccc(C(=O)Nc2cccc(-n3cc(C)nc3O)c2)c1` [IML-67], in assay [1], the “E. coli Assay LE395 (0-5)” value was 3 and the “E. coli specificity (MOA)” value is on record as 4.
For the compound `COc1cccc(C(=O)Nc2cccc(-c3cc(C(F)(F)F)[nH]n3)c2)c1` [IML-70], in assay [1], the “E. coli Assay LE395 (0-5)” value was found to be 3 and the “E. coli specificity (MOA)” value is recorded as 5.
As to `CCc1ccccc1NC(=O)CNC(=O)c1ccc2nn[nH]c2c1` [IML-102], at Tobacco CGS, the “MST Tobacco (0-5)” value is 5.
`CC(=O)Nc1cccc(NC(=O)CNC(=O)c2ccc3nn[nH]c3c2)c1` [IML-110]: in assay [1], the “E. coli Assay LE395 (0-5)” value is reported as 2 and the “E. coli specificity (MOA)” value amounted to 4. On Tobacco CGS, the “MST Tobacco (0-5)” value turned out to be 5.
On to `CCc1ccccc1NC(=O)CNC(=O)c1ccc2c(c1)nnn2CC` [IML-112], for which the “MST Tobacco (0-5)” value on Tobacco CGS was 4.
Consider `CCc1ccccc1NC(=O)CN(C)C(=O)c1ccc2nc[nH]c2c1` [IML-113], for which the “MST Tobacco (0-5)” value at Tobacco CGS amounted to 5.
With `O=C(O)C1CN(C(=O)c2ccn(-c3ccccc3)n2)c2ccccc21` (stereo not shown) [IML-121], in assay [1], the “E. coli Assay LE395 (0-5)” value amounted to 2 and the “E. coli specificity (MOA)” value was determined as 4. Further, in the assay on Arabidopsis thaliana, the activity at 50 µM is 9%. Also, the “TEV (relative to DMSO)” value in the assay “TEV (relative to DMSO)” is reported as 0.28. In the assay on Roquette, the “Roquette assay spray (single average)” value was determined as 3.0 and the “Roquette assay spray (twice average)” value is listed as 4.0.
`O=C(O)C1CN(C(=O)c2cc(-c3ccccc3)[nH]n2)c2ccccc21` (stereo not shown) [IML-125]: in the assay on Arabidopsis thaliana, the activity at 50 µM was found to be 45%.
In the case of `O=C(CNC(=O)c1ccc2[nH]ncc2c1)Nc1ccccc1` [IML-134], in assay [1], the “E. coli Assay LE395 (0-5)” value was 3 and the “E. coli specificity (MOA)” value is on record as 4. The activity at 50 µM in the assay on Arabidopsis thaliana was determined as 67%. In addition, at Tobacco CGS, the “MST Tobacco (0-5)” value is listed as 3.
For `O=C(c1cc(-c2ccccc2)on1)N1CCc2cc([N+](=O)[O-])ccc21` [IML-161], the “TEV (relative to DMSO)” value in “TEV (relative to DMSO)” is reported as 0.14.
As to `O=C(O)CC1CN(C(=O)c2cc(-c3ccccc3)on2)c2ccccc21` (stereo not shown) [IML-164], the activity at 50 µM in the assay with Arabidopsis thaliana is 4%. Besides, in “TEV (relative to DMSO)”, the “TEV (relative to DMSO)” value came to 0.11. Further, in the assay with Roquette, the “Roquette assay spray (single average)” value is on record as 3.0 and the “Roquette assay spray (twice average)” value is given as 3.0.
With `COc1cccc(-c2cc(C(=O)N3CC(C(=O)O)c4ccccc43)no2)c1` (stereo not shown) [IML-166], in the assay with Arabidopsis thaliana, the activity at 50 µM came out at 0%. Also, the “TEV (relative to DMSO)” value in “TEV (relative to DMSO)” came to 0.06. Besides, in the assay with Roquette, the “Roquette assay spray (single average)” value is 2.0 and the “Roquette assay spray (twice average)” value worked out at 4.0.
The corresponding values for `O=C(O)C1CN(C(=O)c2cc(-c3ccccc3Cl)on2)c2ccccc21` (stereo not shown) [IML-167] are 0%, 0.31, 1.3 and 3.5.
Take `O=C(O)C1CN(C(=O)c2cc(-c3cccc(Cl)c3)on2)c2ccccc21` (stereo not shown) [IML-181]: the activity at 50 µM in the assay on Arabidopsis thaliana was 0%. Further, the “TEV (relative to DMSO)” value in the assay “TEV (relative to DMSO)” is reported as 0.22. Further, the “Roquette assay spray (single average)” value with Roquette amounted to 0.5.
For `O=C(c1ccc2[nH]ncc2c1)N1CCCC(Nc2ccccc2)C1` (stereo not shown) [IML-203], the activity at 50 µM in the assay on Arabidopsis thaliana was determined as 50%.
On the same count and under the same terms, in the case of `O=C(c1ccc2[nH]ncc2c1)N1CCC(Nc2ccccc2)C1` (stereo not shown) [IML-204] it was 35%.
As to `Cc1c(Cl)cccc1Nc1nc(-c2cccc(NC(=O)c3ccccc3)c2)cs1` [IML-211], the “E. coli Assay LE395 (0-5)” value in assay [1] is recorded as 4.
For `COc1ccc(Cc2nc(-c3cccc(NC(=O)c4ccccc4F)c3)no2)cc1` [IML-217], in assay [1], the “E. coli Assay LE395 (0-5)” value is 3 and the “E. coli specificity (MOA)” value worked out at 5. At Tobacco CGS, the “MST Tobacco (0-5)” value came to 2.
For the compound `COc1cccc(Nc2nc(-c3cccc(N4C(=O)c5ccccc5C4=O)c3)cs2)c1` [IML-218], in assay [1], the “E. coli Assay LE395 (0-5)” value is reported as 3 and the “E. coli specificity (MOA)” value is 5.
The corresponding values for `O=C(Nc1cccc(-c2cn(Cc3ccccc3)nn2)c1)c1cc(C(F)(F)F)ccn1` [IML-223] are 5 and 5.
Regarding `O=C(Nc1cccc(-c2cn(Cc3ccccc3)nn2)c1)c1cccc(Cl)c1` [IML-232], in the assay on Arabidopsis thaliana, the activity at 50 µM was found to be 68%. For the same compound, in the assay with Roquette, the “Roquette assay spray (single average)” value is recorded as 1.0 and the “Roquette assay spray (twice average)” value was 4.0.
`CCc1nc(-c2cncc(NC(=O)c3cccc(Cl)c3)c2)no1` [IML-234]: the “TEV (relative to DMSO)” value in the assay “TEV (relative to DMSO)” is 0.75. Moreover, in the assay on Roquette, the “Roquette assay spray (single average)” value was determined as 1.5 and the “Roquette assay spray (twice average)” value is recorded as 3.0.
For the compound `COc1cccc(-c2cc(C(=O)N3C[C@H](C(=O)O)c4ccccc43)no2)c1` [IML-238], in the assay on Arabidopsis thaliana, the activity at 50 µM came to 3%. In “TEV (relative to DMSO)”, the “TEV (relative to DMSO)” value turned out to be 0.29. Besides, the “Roquette assay spray (twice average)” value in the assay with Roquette is 2.0.

Source of the values: patent publication US11639345B2, “Methionine metabolic pathway inhibitors” (MIGAL—GALILEE RESEARCH INSTITUTE LTD., priority 2018, dated 2023).
